In patent US11478445B2, “Method for treating acute myeloid leukemia” (Bionomics Limited, priority 2017, dated 2022):
“Also recorded” adds a separate entry of the source.

Legend:
Noxa = experiment: Western blot for Noxa in AML cell lines; type: cell-based; conditions: six AML cell lines, 10 nM and 100 nM, 8 h
Method: Cells were harvested (4×10^6 for cell lines and 7×10^6 for L-AMLs) and washed 3 times with cold PBS (centrifuged at 4° C.). Lysis buffer was prepared with NP40 Cell Lysis Buffer (ThermoFisher Scientific), cOmplete protease inhibitor (Roche, 046993116001), PhosStop (Roche, 04906837001) and Pefablock (Roche, 11585916001) at the recommended concentrations. After the washes, cells were resuspended in 50 μL of lysis buffer, vortexed and incubated on ice for 30 min. Samples were vortexed every 10 min. After 30 min incubation, samples were centrifuged at 14,000 g at 4° C. for 10 min and supernatants were transferred to tubes. Protein was quantified using the DC Protein Assay kit (BioRad) per manufacturer's protocol. 50 μg of cell lines lysate or 20 μg of L-AML6 lysate were loaded for SDS-PAGE. Protein was transferred from the gels into PVDF membranes using a semi dry transfer apparatus (BioRad). […]
Once it was determined that this group of AML cell lines are highly sensitive to EX 1, the mechanism underlying this response was investigated. […]
Therefore, cells were treated with a range of doses of EX 1 for 8 h and 24 h, as described above, before protein extraction was performed. […] Noxa was readily detected in control lysate prepared from HEK293 cells.

[1] = tested on: Caspase 3/7 activity in primary AML MNC samples; experiment: Caspase-Glo 3/7 assay in primary AML samples; type: cell-based, human
Method: Cryopreserved mononuclear cells (MNC from BM or leukapheresis samples) were thawed in a water bath at 37° C. and cell suspension transferred to a 50 mL tube. 20 mL of IMDM media (Sigma, 13390) supplemented with 20% FBS (JRH Biosciences), 50 U/mL DNase I (Sigma), 100 IU/mL penicillin (Sigma), 100 μg/mL streptomycin (Sigma) and 2 mM L-glutamine (Sigma) was added dropwise to the cells while the tube was being vortexed slowly (or mixed by hand). The cells were centrifuged at 400 g for 5 min, supernatant was discarded and the cells were washed once with 20 mL PBS. […] The next morning, viability was determined by trypan blue exclusion and samples with viability lower than 85% underwent dead cell removal by density gradient centrifugation as follows: 15 mL of Lymphoprep (AXIS-Shield) was transferred to a 50 mL tube and the cell suspension (25 mL) carefully overlayed (so as not to disturb the interface mixing with the Lymphoprep). […] Viability and cell density were determined by trypan blue exclusion and cells were plated for respective experiments as described in the Results section.
10^4 cells (10 μL) of each sample/treatment were aliquoted in triplicate wells of a 96-well plate (white wall OptiPlate 96, Perkin Elmer) containing 40 μL complete media. […] Luminescence was measured with a FLOUstar OPTIMA plate reader (BMG Labtech). […]

caspase 3/7 activity ([1]; AML480, 24 h): some increase in caspase activity | caspase 3/7 activity compared to DMSO ([1]; all the AML samples, 48 h): increase in caspase activity
Compound: COc1cc(C(=O)c2c(C)oc3c(O)c(OC)ccc23)cc(OC)c1OC [EX 1, 2-Methyl-7-hydroxy-3-(3,4,5-trimethoxybenzoyl)-6-methoxybenzofuran]
Noxa induction (Noxa): could only be detected in OCI-AML3 and ME1; also recorded: only observed in OCI-AML3 and ME1 lines
